Laboratory results taken from PubChem BioAssay (NCI).
Where “and” joins values, the source holds several entries; their conditions need not be identical. Equal entries are not always repeated.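 How tested: cells in 96-well plates exposed to compound for 48 hours at five concentrations. Abbreviation: GI50, concentration required for 50% inhibition of growth. The concentration for full growth arrest is given as TGI.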

Tests used:
Assay in all cases: DTP human tumour cell line panel, 48 h
ACHN renal = system: ACHN renal
COLO 205 colon = system: COLO 205 colon
IGROV1 ovarian = system: IGROV1 ovarian
MALME-3M melanoma = system: MALME-3M melanoma
PC-3 prostate = system: PC-3 prostate
SK-MEL-28 melanoma = system: SK-MEL-28 melanoma
SK-MEL-5 melanoma = system: SK-MEL-5 melanoma
SK-OV-3 ovarian = system: SK-OV-3 ovarian
SNB-19 CNS = system: SNB-19 CNS
U251 CNS = system: U251 CNS

Row | Compound | GI50 (ACHN renal) [µM] | TGI (ACHN renal) | GI50 (COLO 205 colon) | TGI (COLO 205 colon) | GI50 (IGROV1 ovarian) [µM] | TGI (IGROV1 ovarian) | GI50 (MALME-3M melanoma) [µM] | TGI (MALME-3M melanoma) | GI50 (PC-3 prostate) [µM] | TGI (PC-3 prostate) [µM] | GI50 (SK-MEL-28 melanoma) | TGI (SK-MEL-28 melanoma) | GI50 (SK-MEL-5 melanoma) [µM] | TGI (SK-MEL-5 melanoma) [µM] | GI50 (SK-OV-3 ovarian) [µM] | TGI (SK-OV-3 ovarian) | GI50 (SNB-19 CNS) [µM] | TGI (SNB-19 CNS) | GI50 (U251 CNS) [µM] | TGI (U251 CNS)
1 | O=C1/C(=C/c2ccc([N+](=O)[O-])cc2)CN(C(=O)CCN2CCC(=NO)CC2)C/C1=C\c1ccc([N+](=O)[O-])cc1 | 0.893 | 2.46 µM | 2.33 µM | 5.93 µM | 0.817 | 2.75 µM | 2.04 | 6.9 µM | 0.583 | 2.38 | 1.93 µM | 4.72 µM | 1.99 | 4.38 | 5.96 | 17.4 µM | 1.08 | 5.13 µM | 0.509 | 2.03 µM
2 | CCCN1C(=O)NC(=O)C(CC)(N2C(=O)c3c(F)c(F)c(F)c(F)c3C2=O)C1=O (configuration not stated) | 1.9 | 3.69 µM | 1.74 µM | 3.29 µM | 1.58 | 3.67 µM | 2.06 | 5.31 µM | 1.95 | 5.62 | 1.71 µM | 3.22 µM | 2.37 | 7.71 | 3.96 | 13.2 µM | 2.44 | 6.53 µM | 1.41 | 3.76 µM
3 | CC(=O)Nc1ccc(-c2cc(C(=O)O)c3cc4ccccc4cc3n2)cc1 | – | > 100 µM | – | > 100 µM | – | > 100 µM | – | > 100 µM | – | > 100 | – | > 100 µM | – | > 100 | – | > 100 µM | – | > 100 µM | – | > 100 µM
4 | O=C(NCC1CC1)c1ccc(-c2cccc(C(=O)NC3CC3)c2)cc1 | > 25 | > 25 µM | > 25 µM | > 25 µM | > 25 | > 25 µM | > 25 | > 25 µM | > 25 | > 25 | > 25 µM | > 25 µM | > 25 | > 25 | > 25 | > 25 µM | > 25 | > 25 µM | > 25 | > 25 µM
5 | c1ccc(C2ONC3=NCCN32)cc1 (configuration not stated) | 41.9 | > 100 µM | 41.6 µM | > 100 µM | 31.2 | > 100 µM | 62.9 | > 100 µM | 18.8 | 78.2 | > 100 µM | > 100 µM | 0.995 | 49.6 | 37 | > 100 µM | > 100 | > 100 µM | 55 | > 100 µM
6 | C=C1CCC2C3(C)COC(C)(C)OC3CCC2(C)C1C/C=C1/C(=O)OCC1OC(C)=O (configuration not stated) | 3.12 | 10.5 µM | 1.72 µM | 3.43 µM | 2.03 | 6.84 µM | 3.11 | 10.1 µM | 10.2 | 26.2 | 2.21 µM | 4.94 µM | 4.8 | 16.4 | 12.5 | 25.7 µM | 15.6 | 29 µM | 2.69 | 9.31 µM
7 | c1ccc(NN(Cc2cnccn2)c2ccccc2)cc1 | – | > 100 µM | – | > 100 µM | – | > 100 µM | – | > 100 µM | – | > 100 | – | > 100 µM | – | > 100 | – | > 100 µM | – | > 100 µM | – | > 100 µM
8 | C=CCc1c(Cl)nc(Cl)nc1Cl | – | 1.2 µM | – | 0.696 µM | – | 1.36 µM | – | 1.47 µM | – | 2.92 | – | 1.93 µM | – | 0.301 | – | 9.12 µM | – | 2.21 µM | – | 1.74 µM
9 | Cc1ccc(S(=O)(=O)SC/C=C\CSS(=O)(=O)c2ccc(C)cc2)cc1 | – | > 100 µM and 83.6 µM | 8.94 µM and 18.8 µM | 33.1 µM and 33.6 µM | – | > 100 µM and 79.2 µM | – | > 94.9 µM and 43.8 µM | – | > 100 | 39.7 µM and 18.8 µM | > 78.8 µM and 35.5 µM | – | > 100 | – | 98.9 µM and 83.2 µM | – | > 89.3 µM and 77.7 µM | – | 66.3 µM and 34.7 µM
